Results taken from article PMC12727497, “Inhibition of IRAK4 by microbial trimethylamine blunts metabolic inflammation and ameliorates glycemic control” (Nature Metabolism, 2025).

Target: interleukin-1 receptor-associated kinase 4 (IRAK4) (Homo sapiens, UniProt Q9NWZ3)
Experiment: biochemical

Chain of interleukin-1 receptor-associated kinase 4 (IRAK4) (Q9NWZ3 whole entry): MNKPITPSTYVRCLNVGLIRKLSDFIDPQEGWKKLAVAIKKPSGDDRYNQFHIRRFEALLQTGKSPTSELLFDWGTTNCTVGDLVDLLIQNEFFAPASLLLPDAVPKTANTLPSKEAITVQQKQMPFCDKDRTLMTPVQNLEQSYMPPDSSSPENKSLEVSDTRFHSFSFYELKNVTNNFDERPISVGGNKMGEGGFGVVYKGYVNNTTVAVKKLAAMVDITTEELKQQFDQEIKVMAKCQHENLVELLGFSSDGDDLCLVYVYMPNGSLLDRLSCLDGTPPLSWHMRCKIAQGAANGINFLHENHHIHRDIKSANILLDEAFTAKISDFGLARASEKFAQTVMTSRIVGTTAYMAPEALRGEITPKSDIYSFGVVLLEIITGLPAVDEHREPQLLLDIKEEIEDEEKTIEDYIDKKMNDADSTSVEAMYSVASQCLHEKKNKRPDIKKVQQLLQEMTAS

With `CN(C)C` [TMA, trimethylamine] the Kd was 0.014 µM.
